Assay: Physicochemical properties of Compound I (ionization, aqueous solubility)

ionization (pH range of 2-11): non-ionizable
aqueous solubility (room temperature): low
SMILES: CC(C)[C@@H](NC(=O)NCC(C)(C)O)C(=O)N1CC[C@](O)(c2ccc(Cl)cc2)C(C)(C)C1 [Compound I]
